Literature values, collected in PMC11528414 (Journal of the American Chemical Society, 2024).

Test system: PANC-1
Details: read-out: Reported Anticancer Activity PANC-1 (IC50); reported values

## C[N+]1=C2C=C(NCCc3ccc(O)cc3)C(=O)c3[nH]cc(c32)CC1 [makaluvamine J]
  IC50: 54 nM
